Measured values reported in patent US10844066B2, “2-amino-N-[7-methoxy-2, 3-dihydroimidazo-[1,2-c] quinazolin-5-yl] pyrimidine-5-carboxamides” (Bayer Pharma Aktiengesellschaft, priority 2016, dated 2020).
pIC50: −log10 of the molar value.

Tests used:
[1] = target: T1, human p110α subunit of PI3K (PI3Kα) (Homo sapiens, UniProt P42336); assay: Solid-Phase Lipid Kinase p110α assay; assay type: biochemical; details: recombinant truncated (ΔN 1-108) p110α, 7.5 ng/well; final 10 μM ATP; RT 2 hours
T1 construct: His6 (N); made in house; host or cells: S. frugiperda 9 (Sf9) insect cells
Description: [Determination of IC50 Values of Compounds in Kinase Assay of PI3Kα]
Phosphatidylinositol (Ptdlns) and phosphatidylserine (PtdSer) were purchased from DOOSAN SERDARY RESEARCH LABORATORIES (Toronto, Canada). Recombinant truncated forms (ΔN 1-108) of the human p110α and p110β subunits of PI3K with N-terminal His6-Tags were expressed in S. frugiperda 9 insect cells. Recombinant human PI3Kγ (full length human PI3K p1107 fused with a His6-tag at the C-terminus expressed in S. frugiperda 9 insect cells) was obtained from ALEXIS BIOCHEMICALS (#201-055-C010; San Diego, Calif.). [γ^33P]ATP and unlabeled ATP were purchased from AMERSHAM PHARMACIA BIOTECH (Buckinghamshire, UK) and ROCHE DIAGNOSTICS (Mannheim, Germany), respectively. Scintillation cocktails Ultima Gold™ scintillation cocktail were purchased from PERKIN ELMER. Maxisorp™ plates were purchased from NALGE NUNC INTERNATIONAL K.K. (Tokyo, Japan). All other chemicals not further specified were from WAKO PURE CHEMICALS (Osaka, Japan). […]
(§1) The radioactivity incorporated into the immobilized PI substrate was determined with a BetaPlate Liquid Scintillation Counter (PerkinElmer).
(§2) The inhibition percent at each concentration of compound was calculated, and IC50 values were determined from the inhibition of curve.

[2] = target: T2, human p110β subunit of PI3K (PI3Kβ) (Homo sapiens, UniProt P42338); assay: Solid-Phase Lipid Kinase p110β assay; assay type: biochemical; details: recombinant truncated (ΔN 1-108) p110β, 7.5 ng/well; otherwise as PI3Kα assay
T2 construct: His6 (N); made in house; host or cells: S. frugiperda 9 (Sf9) insect cells
Protocol: To assess inhibition of PI3Kα by compounds, the Maxisorp™ plates were coated with 50 μL/well of a solution containing 50 μg/ml Ptdlns and 50 μg/ml PtdSer dissolved in chloroform:ethanol (3:7). The plates were subsequently air-dried by incubation for at least 2 hours in a fume hood. The reaction was set up by mixing 25 μL/well of assay buffer 2× (100 mM MOPSO/NaOH, 0.2 M NaCl, pH 7.0, 8 mM MgCl2, 2 mg/mL BSA (fatty acid-free)), and 7.5 ng/well PI3Kα in the lipid pre-coated plate. 10× test compounds were added in 2% DMSO. The reaction was started by adding 5 μL/well of a 40 μM ATP mix (final 10 μM ATP; 20 μCi/ml[γ^33P]ATP). After incubation at RT for 2 hours, the reaction was terminated by adding 5 μl/well stop solution (25 mM EDTA, pH 8.0). The plate was then washed twice with Tris-buffered saline (TBS, pH 7.4). Ultima Gold™ (PERKINELMER) scintillation mix was added at 25 μL/well.
as §1, §2
A recombinant truncated form (ΔN 1-108) of the human p110β or […] subunit of PI3K with an N-terminal His6-Tag was expressed in S. frugiperda 9 insect cells. […]

T1 sequence (P42336 109-1068): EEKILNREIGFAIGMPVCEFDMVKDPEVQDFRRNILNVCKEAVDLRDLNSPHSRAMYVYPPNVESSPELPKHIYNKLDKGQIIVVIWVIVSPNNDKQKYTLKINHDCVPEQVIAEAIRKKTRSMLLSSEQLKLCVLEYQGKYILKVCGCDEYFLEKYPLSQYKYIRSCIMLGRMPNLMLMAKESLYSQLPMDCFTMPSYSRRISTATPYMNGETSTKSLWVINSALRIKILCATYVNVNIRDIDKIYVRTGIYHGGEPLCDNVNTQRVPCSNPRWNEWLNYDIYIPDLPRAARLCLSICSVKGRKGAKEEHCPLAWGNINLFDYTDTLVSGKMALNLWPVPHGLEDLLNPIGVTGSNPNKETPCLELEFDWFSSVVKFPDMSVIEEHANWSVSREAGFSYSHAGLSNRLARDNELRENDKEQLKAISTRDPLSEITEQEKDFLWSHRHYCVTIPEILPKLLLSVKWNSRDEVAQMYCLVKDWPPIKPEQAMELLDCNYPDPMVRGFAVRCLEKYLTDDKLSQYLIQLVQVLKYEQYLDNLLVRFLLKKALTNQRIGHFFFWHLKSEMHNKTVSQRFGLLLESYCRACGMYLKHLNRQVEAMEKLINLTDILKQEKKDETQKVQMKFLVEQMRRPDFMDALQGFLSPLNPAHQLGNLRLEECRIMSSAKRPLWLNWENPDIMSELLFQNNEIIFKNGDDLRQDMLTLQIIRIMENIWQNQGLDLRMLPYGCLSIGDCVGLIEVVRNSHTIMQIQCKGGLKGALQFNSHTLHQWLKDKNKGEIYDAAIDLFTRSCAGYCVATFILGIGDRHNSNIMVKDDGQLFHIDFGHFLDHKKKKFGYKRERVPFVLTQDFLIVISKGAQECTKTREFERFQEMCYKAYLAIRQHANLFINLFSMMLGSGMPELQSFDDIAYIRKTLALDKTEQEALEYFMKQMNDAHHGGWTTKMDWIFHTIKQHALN
T2 sequence (P42338 109-1070): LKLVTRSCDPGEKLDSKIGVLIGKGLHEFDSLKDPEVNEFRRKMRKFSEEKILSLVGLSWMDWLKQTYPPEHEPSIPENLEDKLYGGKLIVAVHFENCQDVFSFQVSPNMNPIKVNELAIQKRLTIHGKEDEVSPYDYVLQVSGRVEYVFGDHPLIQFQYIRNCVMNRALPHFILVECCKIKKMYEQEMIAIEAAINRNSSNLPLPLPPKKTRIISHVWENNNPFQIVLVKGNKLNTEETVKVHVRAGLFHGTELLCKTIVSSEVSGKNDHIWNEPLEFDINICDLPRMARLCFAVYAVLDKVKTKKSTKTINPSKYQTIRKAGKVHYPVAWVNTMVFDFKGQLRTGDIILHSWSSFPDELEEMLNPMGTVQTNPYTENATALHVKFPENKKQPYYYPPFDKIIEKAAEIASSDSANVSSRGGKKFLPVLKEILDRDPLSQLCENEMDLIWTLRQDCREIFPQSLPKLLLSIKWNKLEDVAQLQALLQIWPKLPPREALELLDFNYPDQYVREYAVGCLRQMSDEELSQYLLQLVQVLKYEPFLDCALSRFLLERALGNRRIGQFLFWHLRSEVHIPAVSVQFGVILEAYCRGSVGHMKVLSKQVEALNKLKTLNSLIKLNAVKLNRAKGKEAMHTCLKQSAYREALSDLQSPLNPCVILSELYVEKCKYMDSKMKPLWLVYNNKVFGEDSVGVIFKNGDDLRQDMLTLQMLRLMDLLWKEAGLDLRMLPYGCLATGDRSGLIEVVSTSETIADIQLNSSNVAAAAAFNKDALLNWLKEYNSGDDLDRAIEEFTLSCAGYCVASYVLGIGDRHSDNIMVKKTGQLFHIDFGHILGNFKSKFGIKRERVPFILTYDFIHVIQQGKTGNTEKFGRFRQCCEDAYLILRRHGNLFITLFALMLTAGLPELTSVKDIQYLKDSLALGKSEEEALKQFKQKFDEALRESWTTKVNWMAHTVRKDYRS

Structure (SMILES) | pIC50 [1] | pIC50 [2]
COc1c(OCCCN2CCOCC2=O)ccc2c1N=C(NC(=O)c1cnc(N)nc1)N1CCN=C21 [drawing 15, 2-amino-N-{7-methoxy-8-[3-(3-oxomorpholin-4-yl)propoxy]-2,3-dihydroimidazo[1,2-c]quinazolin-5-yl}pyrimidine-5-carboxamide] | 9.15 | –
COc1c(OCCCN2CCOCC2=O)ccc2c1N=C(NC(=O)c1cnc(N)nc1)N1CCN=C21 [drawing 16, 2-amino-N-{7-methoxy-8-[3-(3-oxomorpholin-4-yl)propoxy]-2,3-dihydroimidazo[1,2-c]quinazolin-5-yl}pyrimidine-5-carboxamide] | – | 7.89
